“And” between values parts separate entries of the source, which are not always exact repeats. Equal values may be shown once. Toxic doses and inconclusive results are not listed. Peptide text beside a SMILES is read from it. * marks the point of attachment. Cbz = O=C(OCc1ccccc1)*
System: P388 leukemia ip, CD2F1 mice, survival T/C
Test: NCI In Vivo Anticancer Drug Screen. Data for tumor model P388 Leukemia (intraperitoneal) in CD2F1 (CDF1) mice
Settings: endpoint: median survival time, higher = longer survival
Procedure, shortened: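 Mice carrying the transplanted tumor received test compound or vehicle. Survival was recorded in each group, and the value is the treated-group measurement divided by that of the vehicle-treated control group.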

[1] = dose: 50.0 mg/kg/injection, schedule: Q01DX005 (ip), vehicle: saline with Tween-80
[2] = dose: 100.0 mg/kg/injection, schedule: Q01DX005 (ip), vehicle: saline with Tween-80
[3] = dose: 200.0 mg/kg/injection, schedule: Q01DX005 (ip), vehicle: saline with Tween-80
[4] = dose: 6.25 mg/kg/injection, schedule: Q01DX009 (ip), vehicle: saline with Tween-80
[5] = dose: 12.5 mg/kg/injection, schedule: Q01DX009 (ip), vehicle: saline with Tween-80
[6] = dose: 50.0 mg/kg/injection, schedule: Q01DX005 (ip), vehicle: Klucel (hydroxypropylcellulose) (HPC)
[7] = dose: 100.0 mg/kg/injection, schedule: Q01DX005 (ip), vehicle: Klucel (hydroxypropylcellulose) (HPC)
[8] = dose: 200.0 mg/kg/injection, schedule: Q01DX005 (ip), vehicle: Klucel (hydroxypropylcellulose) (HPC)
[9] = dose: 50.0 mg/kg/injection, schedule: Q01DX009 (ip), vehicle: Klucel (hydroxypropylcellulose) (HPC)
[10] = dose: 100.0 mg/kg/injection, schedule: Q01DX009 (ip), vehicle: Klucel (hydroxypropylcellulose) (HPC)
[11] = dose: 200.0 mg/kg/injection, schedule: Q01DX009 (ip), vehicle: Klucel (hydroxypropylcellulose) (HPC)
[12] = dose: 12.5 mg/kg/injection, schedule: Q01DX009 (ip), vehicle: saline
[13] = dose: 50.0 mg/kg/injection, schedule: Q01DX009 (ip), vehicle: saline
[14] = dose: 3.13 mg/kg/injection, schedule: Q01DX009 (ip), vehicle: saline
[15] = dose: 16.0 mg/kg/injection, schedule: Q01DX001 (ip), vehicle: water
[16] = dose: 100.0 mg/kg/injection, schedule: Q01DX001 (ip), vehicle: saline
[17] = dose: 200.0 mg/kg/injection, schedule: Q01DX001 (ip), vehicle: saline
[18] = dose: 400.0 mg/kg/injection, schedule: Q01DX001 (ip), vehicle: saline
[19] = dose: 100.0 mg/kg/injection, schedule: Q01DX001 (ip), vehicle: Klucel (hydroxypropylcellulose) (HPC)

In the case of `O=C1C(c2ccccc2)=C(c2ccccc2)C2(c3ccccc3)C=NNC12c1ccccc1` (stereo not drawn), the T/C (dose: 6.25 mg/kg/injection, schedule: Q01DX005 (ip), vehicle: Klucel (hydroxypropylcellulose) (HPC)) is reported as 95 % of control and the T/C (dose: 12.5 mg/kg/injection, schedule: Q01DX005 (ip), vehicle: Klucel (hydroxypropylcellulose) (HPC)) is reported as 92 % of control.

`CCOC(=O)COc1ccc(C2=C(c3ccccc3)C(C)(C)Oc3cc(OC)ccc32)cc1[N+](=O)[O-]` was tested, and the T/C [1] was 97 % of control, the T/C [2] was 93 % of control and the T/C [3] was 86 % of control.

With `CCN(CC)C1CC(C)(O)Cc2cc3c(c(O)c21)C(=O)c1c(O)cc2c(c1C3=O)OC1OC2(C)C(O)C(N(C)C)C1O` (stereo not drawn) the T/C (dose: 50.0 mg/kg/injection, schedule: Q01DX009 (ip), vehicle: other) was 93 % of control.

For `CC(C)(C)C1=CC2(C(C)(C)C)OC2C(=O)C1=O` (stereo not drawn), the T/C (dose: 3.12 mg/kg/injection, schedule: Q01DX009 (ip), vehicle: saline with Tween-80) was 105 % of control, the T/C [4] was 105 % of control and the T/C [5] was 98 % of control.

With `COC(=O)COc1cc2c(cc1C(C)c1ccc(O)cc1)OCO2` (stereo not drawn) the T/C [1] was 100 % of control, the T/C [2] was 102 % of control and the T/C [3] was 90 % of control.

In the case of `COC(=O)n1c(=O)oc2c(Br)cc(Br)cc21`, the T/C [6] is reported as 103 % of control, the T/C [7] is reported as 106 % of control and the T/C [8] is reported as 103 % of control.

For `OCCCOCCCOCCCOCCCOCCCOCCCO`, the T/C [1] was 100 % of control, the T/C [2] was 96 % of control and the T/C [3] was 102 % of control.

`O=C1CSC(=S)N1c1ccc(I)cc1` was tested, and the T/C (dose: 50.0 mg/kg/injection, schedule: Q01DX009 (ip), vehicle: suspension in saline) was 101 % of control, the T/C (dose: 100.0 mg/kg/injection, schedule: Q01DX009 (ip), vehicle: suspension in saline) was 101 % of control and the T/C (dose: 200.0 mg/kg/injection, schedule: Q01DX009 (ip), vehicle: suspension in saline) was 114 % of control.

For `CSc1cccc(NC(=O)OCCOc2ccc(Cl)cc2)c1`, the T/C [9] was 102 % of control, the T/C [10] was 100 % of control and the T/C [11] was 92 % of control.

For `CN(C)CCC(=O)C(=Cc1ccc(Cl)c(Cl)c1)C(=O)CCN(C)C`, the T/C (dose: 50.0 mg/kg/injection, schedule: Q01DX005 (ip), vehicle: saline) was 104 % of control and the T/C (dose: 100.0 mg/kg/injection, schedule: Q01DX005 (ip), vehicle: saline) was 109 % of control.

For `CC(NC(=O)OCc1ccccc1)C(=O)NC(CO)C(N)=O` (stereo not drawn) (Cbz-Ala-Ser-NH2; configuration not given here), the T/C [6] was 97 % of control, the T/C [7] was 98 % of control and the T/C [8] was 102 % of control.

With `N#CC[n+]1ccc2ccccc2c1` the T/C [12] was 105 % of control, the T/C (dose: 25.0 mg/kg/injection, schedule: Q01DX009 (ip), vehicle: saline) was 99 % of control and the T/C [13] was 101 % of control.

In the case of `C(=Nc1ccc2ccc3cccc4ccc1c2c34)c1ccncc1`, the T/C (dose: 25.0 mg/kg/injection, schedule: Q01DX005 (ip), vehicle: Klucel (hydroxypropylcellulose) (HPC)) is reported as 102 % of control, the T/C [6] is reported as 100 % of control and the T/C [7] is reported as 100 % of control. The T/C [8] was 92 % of control.

With `COCCCNC1=C(Cl)C(=O)c2ccccc2C1=O` the T/C (dose: 50.0 mg/kg/injection, schedule: Q01DX009 (ip), vehicle: saline with Tween-80) was 99 % of control, the T/C (dose: 100.0 mg/kg/injection, schedule: Q01DX009 (ip), vehicle: saline with Tween-80) was 117 % of control and the T/C (dose: 200.0 mg/kg/injection, schedule: Q01DX009 (ip), vehicle: saline with Tween-80) was 104 % of control.

In the case of `OC(c1cc2cc(Cl)c(Cl)cc2c2cc(C(F)(F)F)ccc12)C1CCCCN1` (stereo not drawn), the T/C [4] is reported as 109 % of control and the T/C [5] is reported as 102 % of control.

With `COc1ccc(-c2nnc3cc(C)n4nnnc4n23)cc1OC` the T/C [6] was 100 % of control, the T/C [7] was 96 % of control and the T/C [8] was 94 % of control.

`C=CC[P+](Cc1cccc(C)c1)(c1ccccc1)c1ccccc1` was tested, and the T/C (dose: 0.78 mg/kg/injection, schedule: Q01DX009 (ip), vehicle: saline) was 99 % of control, the T/C (dose: 1.56 mg/kg/injection, schedule: Q01DX009 (ip), vehicle: saline) was 111 % of control and the T/C [14] was 104 % of control.

For `CN1CCN(c2ccncc2S(=O)(=O)N2CCOCC2)CC1`, the T/C [13] was 97 % of control and the T/C (dose: 100.0 mg/kg/injection, schedule: Q01DX009 (ip), vehicle: saline) was 95 % of control.

In the case of `COC(=O)C(C)CSc1ccccc1` (stereo not drawn), the T/C (dose: 60.0 mg/kg/injection, schedule: Q01DX005 (ip), vehicle: saline) is reported as 99 % of control and the T/C (dose: 120.0 mg/kg/injection, schedule: Q01DX005 (ip), vehicle: saline) is reported as 107 % of control.

In the case of `N#CSCc1ccccc1`, the T/C [14] is reported as 100 % of control, the T/C (dose: 6.25 mg/kg/injection, schedule: Q01DX009 (ip), vehicle: saline) is reported as 105 % of control and the T/C [12] is reported as 104 % of control.

In the case of `CCCCCCCCNC(=O)OCc1c2ccccc2cc2ccccc12`, the T/C [9] is reported as 98 % of control, the T/C [10] is reported as 101 % of control and the T/C [11] is reported as 98 % of control.

For `COc1ccc(C(C)c2cc3c(cc2OC)OCO3)cc1O` (stereo not drawn), the T/C (dose: 50.0 mg/kg/injection, schedule: Q01DX005 (ip), vehicle: distilled water + Tween-80) was 111 % of control, the T/C (dose: 100.0 mg/kg/injection, schedule: Q01DX005 (ip), vehicle: distilled water + Tween-80) was 102 % of control and the T/C (dose: 200.0 mg/kg/injection, schedule: Q01DX005 (ip), vehicle: distilled water + Tween-80) was 105 % of control.

`CC[C@@]1(O)C[C@H]2CN(CCc3c([nH]c4ccccc34)[C@@](C(=O)OC)(c3cc4c(cc3OC)N[C@H]3[C@@](O)(C(=O)OC)[C@H](OC(C)=O)[C@]5(CC)C=CCN6CC[C@]43[C@@H]65)C2)C1` was tested, and the T/C [15] was 153 % of control and 164 % of control.

`NC1CCNC(O)[N-]1.NC1CCNC(O)[N-]1.[Cl][Pd][Cl]` (stereo not drawn) was tested, and the T/C (dose: 60.0 mg/kg/injection, schedule: Q01DX005 (ip), vehicle: Klucel (hydroxypropylcellulose) (HPC)) was 97 % of control, the T/C (dose: 120.0 mg/kg/injection, schedule: Q01DX005 (ip), vehicle: Klucel (hydroxypropylcellulose) (HPC)) was 103 % of control and the T/C (dose: 240.0 mg/kg/injection, schedule: Q01DX005 (ip), vehicle: Klucel (hydroxypropylcellulose) (HPC)) was 112 % of control.

In the case of `COC1=CCCC(C(C)=O)C1Sc1ccccc1` (stereo not drawn), the T/C [16] is reported as 100 % of control, the T/C [17] is reported as 102 % of control and the T/C [18] is reported as 100 % of control.

For `CNC(=S)NNc1ccc(Cl)nn1`, the T/C [16] was 96 % of control, the T/C [17] was 96 % of control and the T/C [18] was 102 % of control.

With `O=c1[nH]c2nc3ccccc3n2nc1-c1ccccc1` the T/C [19] was 89 % of control.

For `CSCc1cc(C)ccc1NC(C)=O`, the T/C (dose: 50.0 mg/kg/injection, schedule: Q04DX002 (ip), vehicle: saline with Tween-80) was 98 % of control, the T/C (dose: 100.0 mg/kg/injection, schedule: Q01DX001 (ip), vehicle: saline with Tween-80) was 99 % of control and the T/C (dose: 100.0 mg/kg/injection, schedule: Q04DX002 (ip), vehicle: saline with Tween-80) was 98 % of control. For the same compound, the T/C (dose: 200.0 mg/kg/injection, schedule: Q01DX001 (ip), vehicle: saline with Tween-80) was 99 % of control, the T/C (dose: 200.0 mg/kg/injection, schedule: Q04DX002 (ip), vehicle: saline with Tween-80) was 102 % of control and the T/C (dose: 400.0 mg/kg/injection, schedule: Q01DX001 (ip), vehicle: saline with Tween-80) was 100 % of control.

In the case of `CCOc1ccc(N=Nc2c(O)n(-c3ccccc3Cl)c(=S)n(-c3ccc(OC)cc3)c2=O)cc1`, the T/C (dose: 50.0 mg/kg/injection, schedule: Q01DX001 (ip), vehicle: Klucel (hydroxypropylcellulose) (HPC)) is reported as 97 % of control, the T/C [19] is reported as 102 % of control and the T/C (dose: 200.0 mg/kg/injection, schedule: Q01DX001 (ip), vehicle: Klucel (hydroxypropylcellulose) (HPC)) is reported as 97 % of control.

`CCC1=C[C@H]2CN(CCc3c([nH]c4ccccc34)[C@@](OC(C)=O)(c3cc4c(cc3OC)N(C)[C@H]3[C@@](O)(C(=O)NCCSc5ccccc5)[C@H](O)[C@]5(CC)C=CCN6CC[C@]43[C@@H]65)C2)C1` was tested, and the T/C (dose: 0.5 mg/kg/injection, schedule: Q01DX001 (ip), vehicle: water) was 107 % of control, the T/C (dose: 8.0 mg/kg/injection, schedule: Q01DX001 (ip), vehicle: water) was 174 % of control and the T/C [15] was 163 % of control and 184 % of control.
